Holding throughout (format): functional
In test [1] the test system is Tetranychus urticae. Briefly: Acaricidal against Tetranychus urticae (two-spotted spider mite) assessed as mortality at 50 ppm.
The test system of test [2] is Tetranychus urticae. Put plainly: Acaricidal against Tetranychus urticae (two-spotted spider mite) assessed as mortality at 3.1 ppm.
For test [3], the system named is Tetranychus urticae. Briefly: Acaricidal against Tetranychus urticae (two-spotted spider mite) assessed as mortality at 200 ppm.
Test [4] relates to Tetranychus urticae. Briefly: Acaricidal against Tetranychus urticae (two-spotted spider mite) assessed as mortality at 500 ppm.
Test [5] relates to Tetranychus urticae. Put plainly: Acaricidal against Tetranychus urticae (two-spotted spider mite) assessed as mortality at 12.5 ppm.

Consider `CCc1nn(C)c(C(=O)NCc2cccnc2)c1Cl`, for which the Activity was 0% with Tetranychus urticae [1]; 0% with Tetranychus urticae [2]; 0% with Tetranychus urticae [3]; 30% with Tetranychus urticae [4]; 0% with Tetranychus urticae [5].
As to `CCCOc1ccc(CNC(=O)c2c(Cl)c(CC)nn2C)cn1`, the Activity with Tetranychus urticae [1] was 30%; with Tetranychus urticae [2] it was 0%; with Tetranychus urticae [3], 30%; in the test with Tetranychus urticae [4], 80%; with Tetranychus urticae [5] it was 0%.
Take `CCCCCc1ccc(CNC(=O)c2c(Cl)c(CC)nn2C)cn1`: the Activity worked out at 100% with Tetranychus urticae [1]; 0% in the test on Tetranychus urticae [2]; 100% in the test with Tetranychus urticae [3]; 100% with Tetranychus urticae [4]; 100% with Tetranychus urticae [5].
As for `CCCCOc1ccc(CNC(=O)c2c(Cl)c(CC)nn2C)cn1`, the Activity was 80% with Tetranychus urticae [1]; 30% in the test on Tetranychus urticae [2]; 100% with Tetranychus urticae [3]; 100% in the test with Tetranychus urticae [4]; 30% with Tetranychus urticae [5].
Take `CCCc1ccc(CNC(=O)c2c(Cl)c(CC)nn2C)cn1`: the Activity in the test with Tetranychus urticae [1] is 30%; in the test with Tetranychus urticae [2], 0%; in the test with Tetranychus urticae [3] it was 80%; with Tetranychus urticae [4], 100%; in the test with Tetranychus urticae [5], 0%.
Take `CCc1nn(C)c(C(=O)NCc2ccc(OCC(F)(F)C(F)(F)F)nc2)c1Cl`: the Activity in the test with Tetranychus urticae [1] was 100%; in the test with Tetranychus urticae [2] it was 30%; with Tetranychus urticae [3], 100%; with Tetranychus urticae [4] it was 100%; in the test with Tetranychus urticae [5] it was 80%.
Take `CCc1nn(C)c(C(=O)NCc2ccc(CC(C)C)nc2)c1Cl`: the Activity worked out at 100% with Tetranychus urticae [1]; 0% in the test on Tetranychus urticae [2]; 100% in the test with Tetranychus urticae [3]; 100% in the test with Tetranychus urticae [4]; 30% in the test on Tetranychus urticae [5].
For `CCc1nn(C)c(C(=O)NCc2ccc(C(C)C)nc2)c1Cl`, the Activity in the test with Tetranychus urticae [1] is recorded as 100%; in the test on Tetranychus urticae [2], 0%; in the test with Tetranychus urticae [3] it was 100%; with Tetranychus urticae [4], 100%; with Tetranychus urticae [5], 30%.
As for `CCc1nn(C)c(C(=O)NCc2cnccc2C(C)(C)C)c1Cl`, the Activity with Tetranychus urticae [1], with Tetranychus urticae [2], with Tetranychus urticae [3], in the test on Tetranychus urticae [4] and in the test on Tetranychus urticae [5] was 100% each time.
For the molecule `CCCCc1ccc(CNC(=O)c2c(Cl)c(CC)nn2C)cn1`, the Activity is 100% in the test on Tetranychus urticae [1]; 0% in the test on Tetranychus urticae [2]; 100% with Tetranychus urticae [3]; 100% with Tetranychus urticae [4]; 30% in the test with Tetranychus urticae [5].
`CCc1nn(C)c(C(=O)NCc2ccc(OC(C)C)nc2)c1Cl`: the Activity in the test with Tetranychus urticae [1] is 80%; in the test with Tetranychus urticae [2] it was 0%; with Tetranychus urticae [3], 100%; in the test on Tetranychus urticae [4], 100%; with Tetranychus urticae [5] it was 30%.
As to `CCc1nn(C)c(C(=O)NCc2ccc(OCC(F)(F)C(F)F)nc2)c1Cl`, the Activity was 100% in the test with Tetranychus urticae [1]; 30% with Tetranychus urticae [2]; 100% in the test with Tetranychus urticae [3]; 100% in the test with Tetranychus urticae [4]; 80% with Tetranychus urticae [5].
As for `CCc1nn(C)c(C(=O)NCc2ccc(OCCCC(F)(F)F)nc2)c1Cl`, the Activity is reported as 100% in the test on Tetranychus urticae [1]; 30% in the test on Tetranychus urticae [2]; 100% in the test with Tetranychus urticae [3]; 100% in the test on Tetranychus urticae [4]; 80% in the test with Tetranychus urticae [5].
With `CCc1nn(C)c(C(=O)NCc2ccc(OC(C)C(F)(F)F)nc2)c1Cl` (stereo not given), the Activity amounted to 100% in the test on Tetranychus urticae [1]; 30% in the test on Tetranychus urticae [2]; 100% with Tetranychus urticae [3]; 100% in the test with Tetranychus urticae [4]; 100% in the test on Tetranychus urticae [5].
`CCc1nn(C)c(C(=O)NCc2ccc(C(C)(C)C)nc2)c1Cl`: the Activity in the test with Tetranychus urticae [1] came to 100%; in the test with Tetranychus urticae [2], 80%; in the test with Tetranychus urticae [3] it was 100%; with Tetranychus urticae [4] it was 100%; in the test on Tetranychus urticae [5], 100%.
As to `CCc1nn(C)c(C(=O)NCc2ccc(OCC(F)(F)C(F)(F)C(F)(F)F)nc2)c1Cl`, the Activity with Tetranychus urticae [1] was 100%; in the test with Tetranychus urticae [2], 80%; in the test with Tetranychus urticae [3] it was 100%; in the test on Tetranychus urticae [4], 100%; in the test on Tetranychus urticae [5] it was 100%.
In the case of `CCc1nn(C)c(C(=O)NCc2ccc(CC(C)(C)C)nc2)c1Cl`, the Activity is recorded as 100% in the test on Tetranychus urticae [1]; 30% with Tetranychus urticae [2]; 100% in the test with Tetranychus urticae [3]; 100% with Tetranychus urticae [4]; 100% in the test on Tetranychus urticae [5].

Values taken from ChEMBL document CHEMBL3045419, “Synthesis and Acaricidal Activity of N-(3-Pyridylmethyl)pyrazolecarboxamide Derivatives” (1997).
